Test results as given in ChEMBL document CHEMBL1862790, “Optimisation of fenarimol series for the treatment of Chagas disease”.

Columns and labels:
Trypanosoma cruzi [1] = test: microbe, parasite or virus in culture; type: functional, organism-based, Tulahuen LacZ, Clone C4; conditions: Trypanosoma cruzi, Tulahuen LacZ, Clone C4
[2] = DNDI: Cytotoxicity against L-6 rat myoblasts from skeletal muscle cells; conditions: L6 rat skeletal muscle myoblast cells, IC50
Trypanosoma cruzi [3] = test: microbe, parasite or virus in culture; type: functional, Tulahuen LacZ, Clone C4
[4] = Trypanosoma cruzi, Tulahuen LacZ, Clone C4

CC(C)(C)C(=O)N1CCC(NC(c2ccc(C(F)(F)F)cc2)c2cccnc2)CC1 (stereo not drawn)
IC50 (Trypanosoma cruzi [1]): 24 nM
IC50 [2]: > 100000 nM
IC90 (Trypanosoma cruzi [3]; [4]): 266 nM

CC(C)Oc1ccc(C(NC2CCN(C(=O)Nc3ccccc3)CC2)c2cccnc2)cc1 (stereo not drawn)
IC50 (Trypanosoma cruzi [1]): 72 nM
IC50 [2]: 72100 nM
IC90 (Trypanosoma cruzi [3]; [4]): 250 nM

O=C(N1CCN(C(c2cccnc2)c2ccc(Cl)cc2F)CC1)C(F)(F)F (stereo not drawn)
IC50 (Trypanosoma cruzi [1]): 320 nM
IC50 [2]: > 100000 nM
IC90 (Trypanosoma cruzi [3]; [4]): 830 nM

CC(C)Oc1ccc(C(c2cccnc2)N(C(=O)C2CC2)C2CCN(C(=O)C3CC3)CC2)cc1 (stereo not drawn)
IC50 (Trypanosoma cruzi [1]): > 1000 nM
IC50 [2]: > 100000 nM
IC90 (Trypanosoma cruzi [3]; [4]): > 1000 nM

O=C(NC1CCN(C(c2ccc(C(F)(F)F)cc2)c2cccnc2)CC1)c1ccccc1 (stereo not drawn)
IC50 (Trypanosoma cruzi [1]): 8.5 nM
IC50 [2]: 62600 nM
IC90 (Trypanosoma cruzi [3]; [4]): 57.5 nM

Cc1ncoc1C(=O)NC1CCN(C(c2ccc(C(F)(F)F)cc2)c2cccnc2)CC1 (stereo not drawn)
IC50 (Trypanosoma cruzi [1]): 29 nM
IC50 [2]: 84700 nM
IC90 (Trypanosoma cruzi [3]; [4]): 120 nM

Cc1cc(C(=O)N2CCC(NC(c3ccc(C(F)(F)F)cc3)c3cccnc3)CC2)no1 (stereo not drawn)
IC50 (Trypanosoma cruzi [1]): 120 nM
IC50 [2]: > 100000 nM
IC90 (Trypanosoma cruzi [3]; [4]): 350 nM

CS(=O)(=O)NC1CCN(C(c2cccnc2)c2ccc(Cl)cc2F)CC1 (stereo not drawn)
IC50 (Trypanosoma cruzi [1]): 83 nM
IC50 [2]: > 100000 nM
IC90 (Trypanosoma cruzi [3]; [4]): 364 nM

CC(C)Oc1ccc(C(O)(c2ccc(Cl)cc2)c2cncnc2)cn1 (stereo not drawn)
IC50 (Trypanosoma cruzi [1]): 40 nM
IC50 [2]: 85900 nM
IC90 (Trypanosoma cruzi [3]; [4]): 100 nM

CS(=O)(=O)NC1CCN(C(c2ccc(Cl)cc2)c2cncnc2)CC1 (stereo not drawn)
IC50 (Trypanosoma cruzi [1]): 630 nM
IC50 [2]: > 100000 nM
IC90 (Trypanosoma cruzi [3]; [4]): > 1000 nM

O=C1NCCN1C1CCN(C(c2ccc(Cl)cc2)c2cccnc2)CC1 (stereo not drawn)
IC50 (Trypanosoma cruzi [1]): 40 nM
IC50 [2]: 67800 nM
IC90 (Trypanosoma cruzi [3]; [4]): 173 nM

CCN(CC)C(=O)N1CCC(NC(c2ccc(OC(C)C)cc2)c2cccnc2)CC1 (stereo not drawn)
IC50 (Trypanosoma cruzi [1]): 7 nM
IC50 [2]: > 100000 nM
IC90 (Trypanosoma cruzi [3]; [4]): 36 nM

CC(C)(C)OC(=O)NC1CCN(C(c2ccc(C(F)(F)F)cc2)c2cccnc2)CC1 (stereo not drawn)
IC50 (Trypanosoma cruzi [1]): 11 nM
IC50 [2]: 48000 nM
IC90 (Trypanosoma cruzi [3]; [4]): 38 nM

O=C(Nc1ccccc1)NC1CCN(C(c2cncnc2)c2ccc(Cl)cc2F)CC1 (stereo not drawn)
IC50 (Trypanosoma cruzi [1]): 30 nM
IC50 [2]: 56000 nM
IC90 (Trypanosoma cruzi [3]; [4]): 190 nM

Cc1cc(C(=O)NC2CCN(C(c3cncnc3)c3ccc(Cl)cc3F)CC2)no1 (stereo not drawn)
IC50 (Trypanosoma cruzi [1]): 76 nM
IC50 [2]: > 100000 nM
IC90 (Trypanosoma cruzi [3]; [4]): 377 nM

O=C(NC1CCN(C(c2ccc(C(F)(F)F)cc2)c2cccnc2)CC1)C1CC1 (stereo not drawn)
IC50 (Trypanosoma cruzi [1]): 72 nM
IC50 [2]: > 100000 nM
IC90 (Trypanosoma cruzi [3]; [4]): 280 nM

Cc1ncsc1C(=O)NC1CCN(C(c2cncnc2)c2ccc(Cl)cc2F)CC1 (stereo not drawn)
IC50 (Trypanosoma cruzi [1]): 78.5 nM
IC50 [2]: > 100000 nM
IC90 (Trypanosoma cruzi [3]; [4]): 436 nM

N#Cc1ccc(C(c2cccnc2)N2CCC(NC(=O)Nc3ccccc3)CC2)cc1 (stereo not drawn)
IC50 (Trypanosoma cruzi [1]): 29 nM
IC50 [2]: > 100000 nM
IC90 (Trypanosoma cruzi [3]; [4]): 95 nM

Cc1cc(C(=O)NC2CCN(C(c3ccc(C(F)(F)F)cc3)c3cccnc3)CC2)[nH]n1 (stereo not drawn)
IC50 (Trypanosoma cruzi [1]): 48 nM
IC50 [2]: 73100 nM
IC90 (Trypanosoma cruzi [3]; [4]): 150 nM

Cc1ncsc1C(=O)NC1CCN(C(c2ccc(C(F)(F)F)cc2)c2cccnc2)CC1 (stereo not drawn)
IC50 (Trypanosoma cruzi [1]): 18 nM
IC50 [2]: 60400 nM
IC90 (Trypanosoma cruzi [3]; [4]): 82 nM

CC(C)Oc1ccc(C(NC2CCN(C(=O)c3ccccc3)CC2)c2cccnc2)cc1 (stereo not drawn)
IC50 (Trypanosoma cruzi [1]): 74 nM
IC50 [2]: > 100000 nM
IC90 (Trypanosoma cruzi [3]; [4]): 270 nM

FC(F)(F)c1ccc(C(NC2CCN(c3nccs3)CC2)c2cccnc2)cc1 (stereo not drawn)
IC50 (Trypanosoma cruzi [1]): 5.5 nM
IC50 [2]: 56400 nM
IC90 (Trypanosoma cruzi [3]): 420 nM

CS(=O)(=O)NC1CCN(C(c2ccc(C(F)(F)F)cc2)c2cccnc2)CC1 (stereo not drawn)
IC50 (Trypanosoma cruzi [1]): 50 nM
IC50 [2]: > 100000 nM
IC90 (Trypanosoma cruzi [3]; [4]): 150 nM

CCN(CC)C(=O)NC1CCN(C(c2cncnc2)c2ccc(Cl)cc2F)CC1 (stereo not drawn)
IC50 (Trypanosoma cruzi [1]): 50 nM
IC50 [2]: 58100 nM
IC90 (Trypanosoma cruzi [3]; [4]): 250 nM

Cc1cc(C(=O)N2CCC(NC(c3ccc(C(F)(F)F)cc3)c3cccnc3)CC2)[nH]n1 (stereo not drawn)
IC50 (Trypanosoma cruzi [1]): 200 nM
IC50 [2]: > 100000 nM
IC90 (Trypanosoma cruzi [3]; [4]): 640 nM

Cc1ncsc1C(=O)N1CCN(C(c2cccnc2)c2ccc(Cl)cc2F)CC1 (stereo not drawn)
IC50 (Trypanosoma cruzi [1]): 36 nM
IC50 [2]: 92700 nM
IC90 (Trypanosoma cruzi [3]; [4]): 244 nM

O=C(Nc1ccccc1)NC1CCN(C(c2ccc(C(F)(F)F)cc2)c2cccnc2)CC1 (stereo not drawn)
IC50 (Trypanosoma cruzi [1]): 14 nM
IC50 [2]: 31700 nM
IC90 (Trypanosoma cruzi [3]; [4]): 36 nM

O=C(NC1CCN(C(c2cncnc2)c2ccc(Cl)cc2F)CC1)c1ccccc1 (stereo not drawn)
IC50 (Trypanosoma cruzi [1]): 22 nM
IC50 [2]: 82400 nM
IC90 (Trypanosoma cruzi [3]; [4]): 110 nM

Cc1cc(C(=O)NC2CCN(C(c3ccc(C(F)(F)F)cc3)c3cccnc3)CC2)no1 (stereo not drawn)
IC50 (Trypanosoma cruzi [1]): 9.3 nM
IC50 [2]: 47400 nM
IC90 (Trypanosoma cruzi [3]; [4]): 27 nM

O=C(NC1CCN(C(c2cncnc2)c2ccc(Cl)cc2F)CC1)c1ccc(F)cc1 (stereo not drawn)
IC50 (Trypanosoma cruzi [1]): 21.5 nM
IC50 [2]: 60100 nM
IC90 (Trypanosoma cruzi [3]; [4]): 114 nM

CC(C)Oc1ccc(C(NC2CCN(C(=O)OC(C)(C)C)CC2)c2cccnc2)cc1 (stereo not drawn)
IC50 (Trypanosoma cruzi [1]): 6.2 nM
IC50 [2]: 58800 nM
IC90 (Trypanosoma cruzi [3]; [4]): 11 nM

O=C(NC1CCN(C(c2cccnc2)c2ccc(Cl)cc2F)CC1)c1ccccc1 (stereo not drawn)
IC50 (Trypanosoma cruzi [1]): 8.25 nM
IC50 [2]: 56400 nM
IC90 (Trypanosoma cruzi [3]; [4]): 83.3 nM

NC(=O)c1cccc(C(O)(c2cncnc2)c2ccc(Cl)cc2F)c1 (stereo not drawn)
IC50 (Trypanosoma cruzi [1]): 86.5 nM
IC50 [2]: > 100000 nM
IC90 (Trypanosoma cruzi [3]; [4]): 426 nM

O=C(c1ccc(F)c(C(O)(c2ccc(Cl)cc2)c2cccnc2)c1)N1CCOCC1 (stereo not drawn)
IC50 (Trypanosoma cruzi [1]): 48 nM
IC50 [2]: > 100000 nM
IC90 (Trypanosoma cruzi [3]; [4]): 190 nM

CC(C)Oc1ccc(C(NC2CCN(S(C)(=O)=O)CC2)c2cccnc2)cc1 (stereo not drawn)
IC50 (Trypanosoma cruzi [1]): 140 nM
IC50 [2]: > 100000 nM
IC90 (Trypanosoma cruzi [3]; [4]): 380 nM

CS(=O)(=O)N1CCC(C(O)(c2ccc(Cl)cc2)c2cccnc2)CC1 (stereo not drawn)
IC50 (Trypanosoma cruzi [1]): 200 nM
IC50 [2]: > 100000 nM
IC90 (Trypanosoma cruzi [3]; [4]): 550 nM

Cc1ncoc1C(=O)N1CCC(NC(c2ccc(C(F)(F)F)cc2)c2cccnc2)CC1 (stereo not drawn)
IC50 (Trypanosoma cruzi [1]): 140 nM
IC50 [2]: > 100000 nM
IC90 (Trypanosoma cruzi [3]; [4]): 540 nM

Cc1cc(C(=O)NC2CCN(C(c3cncnc3)c3ccc(Cl)cc3F)CC2)[nH]n1 (stereo not drawn)
IC50 (Trypanosoma cruzi [1]): 172 nM
IC50 [2]: > 100000 nM
IC90 (Trypanosoma cruzi [3]; [4]): 756 nM

O=C(NC1CCN(C(c2cncnc2)c2ccc(Cl)cc2F)CC1)C1CC1 (stereo not drawn)
IC50 (Trypanosoma cruzi [1]): 150 nM
IC50 [2]: > 100000 nM
IC90 (Trypanosoma cruzi [3]; [4]): 480 nM

CC(C)Oc1ccc(C(O)(c2cccnc2)c2cccc(C(N)=O)c2)cc1 (stereo not drawn)
IC50 (Trypanosoma cruzi [1]): 92 nM
IC50 [2]: 69700 nM
IC90 (Trypanosoma cruzi [3]; [4]): 330 nM

CCN(CC)C(=O)NC1CCN(C(c2ccc(C#N)cc2)c2cccnc2)CC1 (stereo not drawn)
IC50 (Trypanosoma cruzi [1]): 28 nM
IC50 [2]: > 100000 nM
IC90 (Trypanosoma cruzi [3]; [4]): 85 nM

NC(=O)c1cccc(C(O)(c2ccc(Cl)cc2)c2cncnc2)c1 (stereo not drawn)
IC50 (Trypanosoma cruzi [1]): 920 nM
IC50 [2]: > 100000 nM
IC90 (Trypanosoma cruzi [3]; [4]): 2780 nM

O=C(NC1CCN(C(c2cccnc2)c2ccc(Cl)cc2F)CC1)C1CC1 (stereo not drawn)
IC50 (Trypanosoma cruzi [1]): 38 nM
IC50 [2]: > 100000 nM
IC90 (Trypanosoma cruzi [3]; [4]): 130 nM

CC(C)Oc1ccc(C(c2cccnc2)N2CCC(NC(=O)Nc3ccccc3)CC2)cc1 (stereo not drawn)
IC50 (Trypanosoma cruzi [1]): 57 nM
IC50 [2]: 74200 nM
IC90 (Trypanosoma cruzi [3]; [4]): 110 nM

O=C(NC1CCN(C(c2cncnc2)c2ccc(Cl)cc2F)CC1)c1cccc(F)c1 (stereo not drawn)
IC50 (Trypanosoma cruzi [1]): 40.5 nM
IC50 [2]: 61200 nM
IC90 (Trypanosoma cruzi [3]; [4]): 204 nM

CS(=O)(=O)NC1CCN(C(c2ccc(C#N)cc2)c2cccnc2)CC1 (stereo not drawn)
IC50 (Trypanosoma cruzi [1]): 600 nM
IC50 [2]: > 100000 nM
IC90 (Trypanosoma cruzi [3]; [4]): > 1000 nM

O=C(C1CC1)N1CCN(C(c2cccnc2)c2ccc(Cl)cc2F)CC1 (stereo not drawn)
IC50 (Trypanosoma cruzi [1]): 26 nM
IC50 [2]: > 100000 nM
IC90 (Trypanosoma cruzi [3]; [4]): 82 nM

O=C(NC1CCN(C(c2cncnc2)c2ccc(Cl)cc2F)CC1)c1ccccc1F (stereo not drawn)
IC50 (Trypanosoma cruzi [1]): 17.5 nM
IC50 [2]: > 100000 nM
IC90 (Trypanosoma cruzi [3]; [4]): 95.5 nM

N#Cc1ccc(C(c2cccnc2)N2CCC(NC(=O)c3ccccc3)CC2)cc1 (stereo not drawn)
IC50 (Trypanosoma cruzi [1]): 24 nM
IC50 [2]: > 100000 nM
IC90 (Trypanosoma cruzi [3]): 90 nM
IC90 (Trypanosoma cruzi [3]; [4]): 79 nM
